Measurements as given in patent publication US4254115A, “Phospholipid derivative with an antilipemic and antiarteriosclerotic effect” (A. Nattermann & Cie. GmbH, priority 1979, dated 1981).
Read-outs that look alike come from different tables or passages of the source.

What was measured:
[1] = test system: triton-WR 1339 hyperlipemia (serum lipids); test: Acute triton test (1 × prophylactic application) on rats; format: in vivo
Procedure: (a) Prophylactic application
The n-oleyl derivative (i.e., n-oleyl cephalin) was orally administered to the test animals. […] Forty-eight hours after the triton application, serum was analyzed for lipids and compared with a control group.

[2] = test system: triton-WR 1339 hyperlipemia (serum lipids); test: Acute triton test (1 × therapeutic application) on rats; format: in vivo; conditions: for minimal effective dose: Rattus norvegicus, po, 48 h
Procedure: (b) Therapeutic application
One hour later the n-oleyl cephalin was orally administered. Forty-eight hours after the triton is administered, serum is analyzed for lipids and evaluated against a control group.

serum lipids = test: Biochemical screening (unstressed rat); format: in vivo; conditions: oral, serum after 4 h
Procedure: (c) Biochemical screening
In accordance with the procedures set forth in Fletcher, M. J., Clin. Chim. […] Four hours later serum was analyzed for lipids and evaluated against a control group.

Acute toxicity, mouse = format: in vivo; conditions: in vivo
mouse = test: Acute toxicity, mouse; format: in vivo
Acute toxicity, rat = format: in vivo; conditions: in vivo
rat = test: Acute toxicity, rat; format: in vivo
[3] = background knowledge; cited from earlier work
[4] = clofibrate, prophylactic, whole test, no single lipid named
[5] = lowest effective dose, oral, prophylactic
[6] = oral, 24 h before triton, serum 48 h after triton
[7] = lowest dose with drop, therapeutic
[8] = oral, 1 h after triton, serum 48 h after triton

CCOC(=O)C(C)(C)Oc1ccc(Cl)cc1 [Clofibrate, reference compound]
Dosing ... very effective [1, 4]: 500 mg/kg BW | Dosings up to ... ineffective [1, 4]: up to 250 mg/kg BW | minimal effective dose ([2]; lowest dose with drop, therapeutic, read-out: Phospholipids Drop from): 500 mg/kg | minimal effective dose ([2]; lowest dose with drop, therapeutic, read-out: Total lipids Drop from): 250 mg/kg | minimal effective dose ([2]; lowest dose with drop, therapeutic, read-out: Triglycerides Drop from): 250 mg/kg | Free cholesterol No effect up to ([2]; therapeutic): ≤ 500 mg/kg BW | Total cholesterol No effect up to ([2]; therapeutic): ≤ 500 mg/kg BW | minimal effective dose (serum lipids; read-out: Total cholesterol Drop from): 50 mg/kg | minimal effective dose (serum lipids; read-out: Total lipids Drop from): 100 mg/kg | minimal effective dose (serum lipids; read-out: Triglycerides Drop from): 50 mg/kg | LD50 (Acute toxicity, mouse): 2960 mg/kg | LD0 mouse (mouse): ~ 1470 mg/kg BW | LD50 (Acute toxicity, rat): 1100 mg/kg | LD0 rat (rat): ~ 681 mg/kg BW

CCCCC/C=C\C/C=C\CCCCCCCC(=O)NC1CCCCC1 [cyclohexyllinolamide]
antiarteriosclerotic, antilipemic, metabolic or lipid-reducing effect in words [3]: lipid-reducing effect

n-oleylphosphatidylethanolamine [N-oleylcephalin]
Free cholesterol Effect from [1, 5]: 0.10 mg/kg BW | Total cholesterol Effect from [1, 5]: 0.01 mg/kg BW | Phospholipids E.D.50 [1, 6]: 0.62 mg/kg BW | Total lipids E.D.50 [1, 6]: 0.29 mg/kg BW | Triglycerides E.D.50 [1, 6]: 0.18 mg/kg BW | Free cholesterol Drop from [2, 7]: 0.10 mg/kg BW | Phospholipids Drop from [2, 7]: 0.10 mg/kg BW | Total cholesterol E.D.50 [2, 8]: 278.86 mg/kg BW | Total lipids E.D.50 [2, 8]: 8.49 mg/kg BW | Free cholesterol Drop from (serum lipids): 50 mg/kg BW | Phospholipids Drop from (serum lipids): 50 mg/kg BW | Total cholesterol Drop from (serum lipids): 50 mg/kg BW | Total lipids Drop from (serum lipids): 50 mg/kg BW | Triglycerides Drop from (serum lipids): 50 mg/kg BW | LD0 mouse (mouse): > 4640 mg/kg BW | LD50 mouse (mouse): > 4640 mg/kg BW | LD0 rat (rat): > 5000 mg/kg BW | LD50 rat (rat): > 5000 mg/kg BW
